This is an account of results in patent US6107549A, “Genetically engineered plant resistance to thiazopyr and other pyridine herbicides” (Monsanto Company, priority 1999, dated 2000).

Series [1] deals with porcine liver esterase. Briefly: Pyridine-esterase activity assay with porcine liver esterase. The class given is biochemical. As to conditions: for esterase activity against substrate: commercially available preparations of porcine liver esterase. The protocol: (§1) Esterase activity assays. Esterase activity was measured in vitro by conversion of either [^14 C]thiazopyr or [^14 C]MON 14300 to their corresponding monoacid. Pyridine-esterase activity was assayed during protein purification and from tissue extracts of transgenic plants. The homogenizing buffer for plant tissues consisted of 100 mM Tris pH 8.0, 1 mM EDTA, 1 mM DTT, and 10% glycerol in water. Plant tissues (1 g/ml buffer) including leaves, seeds, flowers, seedlings, etc. were homogenized in conical centrifuge tubes using a spinning pestle at 4° C. Following centrifugation (12,000× g), the supernatant (250 μl) was assayed immediately for esterase activity by incubation with [^14 C]thiazopyr or [^14 C]MON 14300 (4 μg) in 0.1 M Tris pH 8.0 buffer (50 μl) at 37° C. The reaction was sampled (100 μL) at various times (0.5 to 100 hr) to generate a kinetic profile of monoacid formation. The reaction was stopped by addition of 1% trifluoroacetic acid in acetonitrile (v/v, 150 μl). Following centrifugation (12,000× g for 3 min), the supernatant was analyzed by HPLC/RAD (radioactivity detection) to resolve the monoacid from the parent herbicide and other metabolites. Control reactions in the absence of the esterase recovered un-reacted thiazopyr or MON 14300 for the duration of experiments. Esterase activity was also assayed during protein purification following a similar procedure except a single time-point (1-2 hrs) of incubation was selected within the linear range of reaction. In vitro assays also employed three commonly used calorimetric (p-nitrophenyl butyrate) or fluorescent (4-methyl umbelliferyl butyrate and 5-bromo-4-chloro-3-indolylacetate) substrates. These substrates are useful in rapidly and qualitatively detecting general esterase activity.
Purification of pyridine-esterases from porcine and rabbit liver. Porcine and rabbit liver esterases, obtained commercially as (NH4)2 SO4 suspensions, were desalted using a disposable SEPHADEX™ G25 size exclusion column (Pharmacia Biotech). Proteins (1 to 10 mg) were initially separated on a strong anion exchange column (MONO Q™, Pharmacia Biotech) at 4° C. The column was linearly programmed in 30 minutes from 0 to 0.4 M KCl in 10 mM Tris buffer, pH 7.4 at a flow rate of 1 m/min. Subsequently, the column was programmed from 0.4 to 1.0 M KCl in 10 min. Effluent was monitored by UV (280 nm) and fractions were collected at 1 ml intervals. Effluent fractions were assayed for protein by Coomassie dye (Bio Rad Laboratory) and for pyridine-esterase activity. Protein purity was determined by SDS-PAGE on 10 to 15% gradient gels (Pharmacia Biotech) with visualization of proteins by silver staining.
Following anion exchange chromatography, fractions with the highest purity and activity were pooled. After desalting, the pooled fractions were further separated by isoelectric focusing (IEF) chromatography on a MONO P™ column (Pharmacia Biotech) at 4° C. IEF chromotography was conducted at different pH ranges (3-9, 4-7, 5.5-6.5 or 4.5-5.5) using appropriate combinations of POLYBUFFERS™ (Pharmacia Biotech) and a flow rate of […]. Effluent fractions from IEF chromatography were analyzed for protein and pyridine-esterase activity. The protein purity of the fractions was determined by SDS-PAGE and IEF-PAGE.

In series [2] the target is T1, pyridine-esterase (Oryctolagus cuniculus, UniProt P12337, A196R/H30K).
T1 construct: made in house; host or cells: transgenic tobacco (Samson) and tomato (UC82B) plants, tissue extracts
T1 sequence (P12337 19-565 H30K/A196R): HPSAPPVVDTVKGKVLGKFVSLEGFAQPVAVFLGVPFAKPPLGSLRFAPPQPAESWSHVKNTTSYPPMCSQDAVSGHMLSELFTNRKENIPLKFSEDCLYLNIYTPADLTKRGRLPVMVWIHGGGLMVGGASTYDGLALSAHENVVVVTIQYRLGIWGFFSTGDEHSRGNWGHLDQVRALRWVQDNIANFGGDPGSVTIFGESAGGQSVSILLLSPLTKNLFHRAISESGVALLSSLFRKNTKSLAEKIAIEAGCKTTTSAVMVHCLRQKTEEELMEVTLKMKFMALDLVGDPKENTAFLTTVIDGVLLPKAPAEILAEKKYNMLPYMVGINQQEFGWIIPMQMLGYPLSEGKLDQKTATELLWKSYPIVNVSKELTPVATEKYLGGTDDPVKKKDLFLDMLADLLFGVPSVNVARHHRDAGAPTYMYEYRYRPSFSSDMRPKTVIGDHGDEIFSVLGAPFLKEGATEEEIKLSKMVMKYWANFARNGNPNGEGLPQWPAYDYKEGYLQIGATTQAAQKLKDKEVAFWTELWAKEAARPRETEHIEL
Type of series: biochemical, rabbit. The conditions noted are these: for hydrolysis by pyridine-esterase (substrate specificity): tobacco line #37437 extract, FIG. 4. As for the experimental part: as §1
Tissue extracts from 3 tobacco R1 seedlings were employed for further studies. Two of the lines (#37437 and #37432) expressed high levels of esterase (~0.5%) and one line (#37436) which expressed no pyridine-esterase was used as negative control. Tissue extracts were incubated with [^14 C]MON 14300 and formation of the monoacid monitored with time. […] In comparison, less that 2% monoacid was detected in line (#37436). […] First, pyridine-esterase was capable of driving the hydrolysis reaction to completion with no apparent product inhibition, and second, there was no endogenous esterase activity in tobacco which catalyzed MON 14300 hydrolysis.

In series [3] the target is T1, pyridine-esterase. Briefly: Esterase activity in leaf extracts from R0 tomato and tobacco plants. The conditions noted are these: R0 tomato and tobacco plants expressing the 60 kD esterase. Type of series: biochemical, rabbit. The protocol: as §1, with “Esterase activity was also assayed during protein purification following a similar procedure except a single time-point (1-2 hrs) of incubation was selected within the linear range of reaction. In vitro assays also employed three commonly used calorimetric (p-nitrophenyl butyrate) or fluorescent (4-methyl umbelliferyl butyrate and 5-bromo-4-chloro-3-indolylacetate) substrates. These substrates are useful in rapidly and qualitatively detecting general esterase activity.” left out

Series [4] has as its system tobacco calli. Description: Herbicide toxicity to tobacco calli on selection media. Type of series: cell-based. As to conditions: for callus survival: control calli, concentrations above 1 μM, after 3 weeks; for suitable selection concentration for RLE3-expressing transgenic tobacco calli: preliminary experiments. An excerpt: The experimental procedure compared the herbicide toxicity of the pyridines upon exposure to tobacco calli that were transformed with a plasmid DNA, pMON13765 (FIG. 8) containing the RLE3 gene, and tobacco calli controls transformed with isogenic plasmid DNA without the RLE3 gene. The vectors, which also encoded NPTII for kanamycin selection, were introduced via Agrobacterium transformation. Kanamycin resistant calli were cut into pieces of 3-5 mm diameter and transferred onto selection media (Murahige and Skoog basal salt mixture in 0.9% agar) containing 0.01, 0.1, 1.0, or 10.0 μM concentration of either thiazopyr or MON 14300 (1 mM stock solution in DMSO). Plates were placed in a lighted growth chamber maintained at 22° C. […] Most control calli were dead after 3 weeks at pyridine herbicide concentrations above 1 μM. […] Preliminary experiments identified 0.1 μM 14300 or thiazopyr as a suitable selection concentration for identifying transgenic tobacco calli that are expressing the RLE3 esterase. It is believed that any member of the pyridine herbicide family that is deactivated by an esterase, and any esterase gene that can hydrolyze the methylester group of a pyridine herbicide would be able to function in this selection system.

Setting [5] is: control vector calli, concentrations above 0.1 μM, after 2-3 weeks.
[6] abbreviates: purified porcine esterase against thiazopyr, double reciprocal plot.

A word on the Km: it is the substrate concentration at which the rate is half of its maximum. Usually Vmax stands for the top rate of the reaction or transport when substrate is in excess.

Molecules are shown by their SMILES.

For the compound `COC(=O)c1c(C(F)F)nc(C(F)(F)F)c(C(=O)n2cccn2)c1CC(C)C` [MON 14300], the “rate of hydrolysis compared with thiazopyr” value in series [1] (commercial porcine liver esterase) is “hydrolyzed faster than thiazopyr”. Further, in series [1], the “esterase activity against substrate” value is listed as “demonstrated activity”. For the same compound, the “hydrolysis to monoacid metabolite” value in series [2] (expressing lines #37432 and #37437, FIG. 3) is recorded as “efficient hydrolysis”. Moreover, the “hydrolysis by pyridine-esterase (substrate specificity)” value in series [2] is reported as “clearly hydrolyzed”. For the same compound, in series [2] (tobacco, seedling tissue extract, 100 h), the monoacid formed turned out to be 90%. In addition, the “hydrolysis by leaf extracts” value in series [3] is “did demonstrate the hydrolysis”. The callus growth was “stunting with reduced shoot development” in series [4] (RLE3 calli, 1.0 to 10 μM); “vigorous growth and shoot development” in series [4] (calli expressing RLE3, 0.1 μM); “little growth” in series [4] (setting [5]). The callus survival in series [4] was “dead”. Besides, the “suitable selection concentration for RLE3-expressing transgenic tobacco calli” value in series [4] came to 0.1 µM.
Consider `COC(=O)c1c(C(F)F)nc(C(F)(F)F)c(C2=NCCS2)c1CC(C)C` [thiazopyr], for which, in series [1], the “esterase activity against substrate” value is “demonstrated activity”. In addition, in series [1] (setting [6]), the Km is 320 µM and the Vmax came out at 10.8 nmol/min/mg. Also, the “hydrolysis by pyridine-esterase (substrate specificity)” value in series [2] was “clearly hydrolyzed”. Besides, in series [3], the “hydrolysis by leaf extracts” value is listed as “did demonstrate the hydrolysis”. Also, the callus growth in series [4] (RLE3 calli, 1.0 to 10 μM) is listed as “stunting with reduced shoot development”. Moreover, the callus growth in series [4] (calli expressing RLE3, 0.1 μM) is “vigorous growth and shoot development”. Also, in series [4], the callus survival is listed as “dead” and the “suitable selection concentration for RLE3-expressing transgenic tobacco calli” value is 0.1 µM. Further, in series [4] (setting [5]), the callus growth is “little growth”.
